Values of other authors, collected in US20160324856A1, “USE OF SGC STIMULATORS FOR THE TREATMENT OF NEUROMUSCULAR DISORDERS” (IRONWOOD PHARMACEUTICALS, INC., priority 2014, published 2016).

Key:
[1] = tested on: dystrophin-deficient zebrafish

In the case of `CCCc1nn(C)c2c(=O)[nH]c(-c3cc(S(=O)(=O)N4CCN(C)CC4)ccc3OCC)nc12` [sildenafil], the cardiac dynamics (mdx mouse; mdx mice) is listed as “improve cardiac dynamics”, the “muscle ischemia, injury and fatigue” value (mdx mouse; mdx mouse, after a brief bout of exercise) is listed as “alleviate muscle ischemia, as well as injury and fatigue” and the “dystrophic skeletal muscle and survival” value [1] is listed as “rescue dystrophic skeletal muscle and prolong survival”.
